Experimental data published in patent publication US11325937B2, “Glycoside compound and preparation method therefor, composition, application, and intermediate” (SHANGHAI HUTCHISON PHARMACEUTICALS LIMITED, priority 2018, dated 2022).

Legend:
VEGF-A mRNA = test: Sponge implanted animal model of inflammatory angiogenesis: VEGF-A mRNA expression; type: in vivo, male C57/BL6 mice; conditions: 2 weeks; for activity in promoting VEGF-A mRNA expression compared with Salvianolate (in words): positive control Salvianolate 60 mg/kg/d, sponge implanted mice
Excerpt: The target pro-angiogenic compounds TG-052, TG-053, TG-054, TG-028, and TG-055 obtained in Effect Example 1 that perform well at the cellular level were further screened for the active molecules that promote VEGF-A mRNA expression in the “sponge implanted animal model” of inflammatory angiogenesis. […] This model can well reflect the expression of VEGF-A mRNA in macrophages recruited around inflammation.
A sponge implanted mouse model was established following the method as described in Zhang J, Modi Y, and Yarovinsky T, et al. Macrophage β2 integrin-mediated, HuR-dependent stabilization of angiogenic factor-encoding mRNAs in inflammatory angiogenesis. [J]. American Journal of Pathology, 2012. 180(4): 1751-1760. The mice used in the present invention was male C57/BL6 mice aged 6-8 weeks and weighing 20-25 g, purchased from Shanghai SLAC Laboratory Animal Co., Ltd, Production License No: SCXK (Shanghai) 2013-0016. The compound screened in Effect Example 1 was weighed according to the amount intended to be used in two weeks, and then mixed with a gel matrix and a solvent to prepare a sustained-release gel of the compound (see Patent Application No.: CN201610168493.9 for the details of the preparation method of the sustained-release gel and the model establishment and detection methods). The specific steps were as follows. A certain amount of the compound obtained in Effect Example 1 was weighed into a 1.5 mL EP tube, and then a certain amount of poly-L-lactic acid (PLLA) with a weight average molecular weight of less than 10,000 was weighed and mixed with the compound (at a weight ratio of the compound to PLLA of 0.5:1 to 2:1). Finally a certain amount of DMSO (less than 100 microliters) was added, spun, mixed well, and then sealed with a sealing film. After continuous ultrasonication at 200 W and 25° C. for 5 h, a sustained-release gel of the compound was obtained, which was stored at 4° C. for later use.
The prepared sustained-release gel can release the drug completely within 2 weeks. The sustained-release gel and sponge were both subcutaneously implanted in the mice at the back. After 2 weeks, the sponge was taken out, and the residual tissue and fur were removed. The sponge was transferred to a cell culture plate containing 10 mL of DMEM medium containing collagenase (Collagenase:DMEM=10 mg/10 mL), cut, and incubated for 1 h in a cell incubator. Then the culture medium containing sponge debris was filtered, and the resulting filtrate was centrifuged. The supernatant was discarded, and 500 μL of Trizol reagent was added to the pellet, and mixed uniformly by blowing. Then the liquid was transferred to a 1.5 mL EP tube, and stored at −80° C. RNA was extracted according to a conventional method, and the RNA concentration was determined using a microvolume nucleic acid and protein analyzer (Nanodrop2000c). The required volume V of RNA was calculated according to the RNA concentration, and the RNA reverse transcription reaction system was prepared according to Table 1. Then RNA reverse transcription (cDNA synthesis) was carried out according to the conditions described in Table 2. The resulting cDNA was used to prepare a fluorescence quantitative qPCR reaction solution according to Table 3. The fluorescence quantitative qPCR reaction conditions were set according to Table 4, and the fluorescence quantitative PCR reaction was performed using cDNA from the reverse transcription reaction as a template. The relative expression level 2^−ΔΔCt of the target gene was calculated from the Ct value of each sample with the blank group as a control and β-Actin as an internal reference. The expression level of VEGF-A mRNA in the cells extracted from the sponge was observed after 2 weeks. […]

[1] = tested on: rats with middle cerebral artery occlusion (MCAO); test: Acute cerebral infarction model in rats with middle cerebral artery occlusion (MCAO); type: in vivo, male SD rats; conditions: for ED50: Rattus norvegicus, ip, 72 h, intraperitoneal injection, TTC staining after 3 days, read-out: ED50 for infarction inhibition rate (%); for Longa nerve scoring, protective effect on nerves (in words): FIG. 5
Summary of the method: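 Male SD rats (280-320 g) with thread-occlusion MCAO; compound given i.p. 2 h pre-surgery and every 24 h after, 5 rats/group. At day 3, TTC-stained brain sections gave infarction rate and inhibition rate vs model, with ED50 from dose-response; body weight, Longa neuro score, brain water content and Evans Blue BBB permeability also assessed.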

COc1ccc(CCCCO[C@@H]2O[C@H](CO)[C@@H](O)[C@H](O)[C@H]2O)cc1 [TG-028]
VEGF-A mRNA expression level relative to blank control without drugs (VEGF-A mRNA; 11.74 mg/kg/d, sustained-release gel, mice): more than 6 times
VEGF-A mRNA expression level relative to blank control without drugs (VEGF-A mRNA; 23.48 mg/kg/d, sustained-release gel, mice): more than 6 times
activity in promoting VEGF-A mRNA expression compared with Salvianolate (in words) (VEGF-A mRNA): significantly higher than that of Salvianolate
effect on inhibiting cerebral infarction (in words) ([1]; MCAO, compared with the control drugs): most potent effect on inhibiting cerebral infarction in rats
ED50 ([1]; MCAO): 2.61 mg/kg
water content in brain, effect on reducing cerebral edema (in words) ([1]; TG-028 5 mg/Kg, three days after MCAO, FIG. 6A): better effect on reducing cerebral edema after acute brain injury of MCAO in rats than Edaravone, Clopidogrel bisulfate, and Salvianolate
integrity of blood-brain barrier, Evans Blue (in words) ([1]; TG-028 5 mg/Kg, three days after MCAO, FIG. 6B): better protective effect on blood-brain barrier after acute brain injury of MCAO in rats than Edaravone and Salvianolate
Longa nerve scoring, protective effect on nerves (in words) ([1]; three days after MCAO): equivalent to that of Edaravone, Clopidogrel bisulfate, and Salvianolate
rate of body weight change, protection (in words) ([1]; three days after brain injury, FIG. 3): significant protection for rats in terms of the body weight after brain injury

OC[C@H]1O[C@@H](OCCc2ccccc2)[C@H](O)[C@@H](O)[C@@H]1O [TG-055]
increase of expression level of VEGF-A mRNA compared with blank control without drugs (VEGF-A mRNA; 19.48 mg/kg/d, sustained-release gel, mice): about 3 times
activity in promoting VEGF-A mRNA expression compared with Salvianolate (in words) (VEGF-A mRNA): comparable to that of Salvianolate
ED50 ([1]; MCAO): 65.3 mg/kg
Longa nerve scoring, protective effect on nerves (in words) ([1]; three days after MCAO): equivalent to that of Edaravone, Clopidogrel bisulfate, and Salvianolate
